The target in experiment [1] is T1, full-length SMAD4–SMAD3 PPI (Homo sapiens, UniProt P84022+Q13485).
T1 construct: expressed in transfected cells; host or cells: HEK293T (lysate)
In words: GST pull-down assay, full-length SMAD4–SMAD3. The format is binding. The method, then: (§1) To validate the hits from the pilot screening, we performed the orthogonal GST pull-down assay using cell lysates from HEK293T cells transfected with Venus-flag-SMAD3 and GST-SMAD4 or Venus-flag-SMAD3-MH2 and GST-SMAD4-MH2. After 48 h of transfection, the cells were lysed in 1% NP-40 lysis buffer, incubated with compounds for 16 h with rotation at 4°C, and then incubated with glutathione-conjugated beads (GE 17527901) for 2 h at 4°C. Beads were washed twice with 1% NP-40 lysis buffer, eluted by boiling in sodium dodecyl sulfate (SDS) sample buffer (Bio-Rad), and subjected to western blot analysis. Proteins in SDS sample buffer were resolved by 10% SDS polyacrylamide gel electrophoresis and transferred to nitrocellulose filter membranes at 100 V for 2 h at 4°C. After blocking in 5% nonfat dry milk in TBST (20 mM Tris-base, 150 mM NaCl, and 0.05% Tween 20) for 1 h at room temperature, the membranes were blotted with the indicated antibodies, mouse monoclonal anti-FLAG-HRP antibody (Sigma‒Aldrich, # A8592) and rabbit polyclonal anti-GST-HRP antibody (Sigma‒Aldrich, Cat# A7340), at 4°C overnight. The membranes were washed three times with 1× TBST for 15 min. […] Luminescence images were captured using the ChemiDoc^TM Touch Imaging System (Bio-Rad).

Experiment [2] relates to TGFβ-induced migration of A549 cells. In words: Wound-healing assay. Conditions: 5 μM compound, TGFβ 10 ng/ml, A549 NucLight Red. It is filed as cell-based. The method, then:
Briefly, A549 NucLight Red cells were seeded in 96-well plates (Greiner, Cat# 655087) at 40000 cells/well in RPMI 1640 media supplemented with 10% FBS and 1% antibiotics. After 24 h, a wound scratch was created in the confluent cell monolayer using a 96-well woundmaker (Sartorius), followed by washing three times with PBS. Then, the medium was replaced with RPMI 1640 medium without FBS. TGFβ (10 ng/ml), GA (5 μM), or GNA (5 μM) was added at the indicated concentrations. After 24 h of treatment, the plates were imaged using the ImageXpress Micro High-Content Imaging System (Molecular Device). The wound-healing activity was quantified by measuring the width (W) of the wound using ImageJ and expressed as […] × 100.

The target in experiment [3] is T2, SMAD–SBE4 PDI (SMAD4–SMAD3–DNA complex) (Homo sapiens, UniProt P84022+Q13485).
T2 construct: expressed in transfected cells; host or cells: HEK293T (transient co-transfection, lysate used)
As to the kind of experiment: Multiplexed TR-FRET assay, Tb–FAM PDI readout (cell lysate-based). The format is binding. Conditions: for inhibition of PDI signal compared to DMSO control, primary screen: 1536-well uHTS, 20 μM, single point.

Experiment [4] deals with TGFβ-induced SBE4-luc reporter activity in HEK293T cells. In words: SBE luciferase reporter assay. Conditions: 5 μM compound, TGFβ 10 ng/ml, 18 h. It is filed as cell-based, Human. On the procedure: SMAD3/SMAD4 complex transcriptional activity was measured using the SBE-luciferase reporter system. HEK293T cells were used to measure the luciferase activity. Cells were plated in 6-well plates and co-transfected with SBE4-Luc plasmid (1 μg, Addgene, 16495) and pDEST26-Renilla plasmid (0.1 μg) using FuGENE® HD (Promega, #E2312). After 24 h of transfection, the cells were pre-treated with GA (MedChemExpress, #HY-N0087) or GNA (MedChemExpress, #HY-5024) at 5 μM for 6 h followed by TGFβ (10 ng/ml, R&D Systems, #240-B) stimulation for an additional 18 h. Renilla and firefly luciferase activities were measured by an Envision Multilabel plate reader (PerkinElmer) using a Dual-Glo luciferase kit (Promega, Cat# E2920) according to the manufacturer's instructions. The normalized luminescence was calculated as the ratio of the luminescence of firefly luciferase over the luminescence of Renilla luciferase.
In general terms: In a reporter assay the amount or activity of a reporter protein is the signal.

For experiment [5], the target named is T3, SMAD4–SMAD3 PPI (Homo sapiens, UniProt P84022+Q13485).
T3 construct: expressed in transfected cells; host or cells: HEK293T (transient co-transfection, lysate used)
As to the kind of experiment: Multiplexed TR-FRET assay, Tb–D2 PPI readout (cell lysate-based). Conditions: for inhibition of PPI signal compared to DMSO control, primary screen: 1536-well uHTS, 20 μM, single point. The format is binding. For orientation: Time-resolved FRET reads energy transfer from a long-lived donor to a nearby acceptor.

Experiment [6] deals with T4, SMAD4–SMAD3 MH2 domain PPI (Homo sapiens, UniProt P84022+Q13485).
T4 construct: GST-SMAD4-MH2 and VF-SMAD3-MH2 (C and D); expressed in transfected cells; host or cells: HEK293T (lysate)
In words: GST pull-down assay, SMAD4–SMAD3 MH2 domains. The format is binding. The method, then:
as §1

Here are results for two molecules from publication PMC11063955, “A multiplexed time-resolved fluorescence resonance energy transfer ultrahigh-throughput screening assay for targeting the SMAD4–SMAD3–DNA complex” (Journal of Molecular Cell Biology, 2023).

The structures appear in SMILES notation. Like-named read-outs stand apart in the source and are kept apart here.

T3 sequence (Q13485 whole entry): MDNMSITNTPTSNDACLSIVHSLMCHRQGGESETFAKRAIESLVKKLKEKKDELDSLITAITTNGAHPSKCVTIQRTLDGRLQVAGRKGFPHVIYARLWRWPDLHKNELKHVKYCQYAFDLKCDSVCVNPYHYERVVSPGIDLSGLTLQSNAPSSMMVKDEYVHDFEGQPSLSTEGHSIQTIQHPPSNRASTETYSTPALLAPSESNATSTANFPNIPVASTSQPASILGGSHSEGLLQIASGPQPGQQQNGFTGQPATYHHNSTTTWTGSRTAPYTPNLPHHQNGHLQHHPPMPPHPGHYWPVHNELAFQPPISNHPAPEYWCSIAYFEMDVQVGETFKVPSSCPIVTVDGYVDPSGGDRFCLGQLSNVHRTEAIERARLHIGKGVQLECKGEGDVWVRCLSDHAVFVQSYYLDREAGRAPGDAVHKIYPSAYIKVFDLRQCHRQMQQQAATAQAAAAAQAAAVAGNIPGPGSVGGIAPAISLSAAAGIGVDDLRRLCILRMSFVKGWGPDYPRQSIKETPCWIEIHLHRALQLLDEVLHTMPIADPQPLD
T3 sequence (P84022 whole entry): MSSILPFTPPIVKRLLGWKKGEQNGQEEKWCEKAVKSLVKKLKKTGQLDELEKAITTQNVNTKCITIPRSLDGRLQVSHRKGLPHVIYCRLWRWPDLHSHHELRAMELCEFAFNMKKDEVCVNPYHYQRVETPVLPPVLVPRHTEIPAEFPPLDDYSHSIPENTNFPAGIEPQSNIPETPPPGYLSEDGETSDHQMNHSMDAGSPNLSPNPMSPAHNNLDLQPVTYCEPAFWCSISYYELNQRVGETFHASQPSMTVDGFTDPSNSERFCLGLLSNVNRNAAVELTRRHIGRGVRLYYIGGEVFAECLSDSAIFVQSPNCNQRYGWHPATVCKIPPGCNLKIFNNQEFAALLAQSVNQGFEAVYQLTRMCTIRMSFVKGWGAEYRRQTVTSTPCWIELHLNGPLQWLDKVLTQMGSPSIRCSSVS
T2 sequence (Q13485 whole entry): as the sequence (Q13485 whole entry) above
T2 sequence (P84022 whole entry): as the sequence (P84022 whole entry) above
T4 sequence (Q13485 323-552): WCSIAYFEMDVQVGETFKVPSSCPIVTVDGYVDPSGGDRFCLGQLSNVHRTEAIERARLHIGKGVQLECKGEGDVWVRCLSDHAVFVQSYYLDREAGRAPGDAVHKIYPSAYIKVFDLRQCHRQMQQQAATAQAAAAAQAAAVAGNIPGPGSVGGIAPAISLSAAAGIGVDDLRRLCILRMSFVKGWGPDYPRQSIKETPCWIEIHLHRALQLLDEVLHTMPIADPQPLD
T4 sequence (P84022 232-425): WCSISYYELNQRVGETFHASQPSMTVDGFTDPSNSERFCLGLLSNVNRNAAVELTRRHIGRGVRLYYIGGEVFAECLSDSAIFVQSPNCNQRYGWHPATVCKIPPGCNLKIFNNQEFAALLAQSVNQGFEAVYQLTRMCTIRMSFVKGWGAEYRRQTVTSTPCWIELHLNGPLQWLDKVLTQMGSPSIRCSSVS
T1 sequence (Q13485 whole entry): as the sequence (Q13485 whole entry) above
T1 sequence (P84022 whole entry): as the sequence (P84022 whole entry) above

Consider `CC(C)=CCC[C@]1(C)C=Cc2c(O)c3c(c(CC=C(C)C)c2O1)O[C@]12C(=C[C@@H]4C[C@H]1C(C)(C)O[C@@]2(C/C=C(/C)C(=O)O)C4=O)C3=O` [GA, gambogic acid], for which the IC50 in experiment [1] (GST-SMAD4 and VF-SMAD3 lysates, densitometry of western blots, read-out: IC50, decrease of SMAD3 protein in the pull-down GST-SMAD4 complex) was about 11.4 µM; in experiment [3] (TR-FRET dose–response confirmation with re-ordered compounds, 5′-FAM-SBE4 dsDNA, read-out: IC50, decrease in the PDI signal) it was 36 ± 9.4 µM; in experiment [5] (TR-FRET dose–response confirmation with re-ordered compounds, lysate co-expressing His-SMAD4 and Flag-SMAD3, read-out: IC50, decrease in the PPI signal), 4.3 ± 0.5 µM; in experiment [6] (GST-SMAD4-MH2 and VF-SMAD3-MH2 lysates, densitometry of western blots, read-out: IC50, inhibition of the PPI of SMAD4–SMAD3 MH2 domains), about 11.4 µM. Further, the “TGFβ-induced A549 cell migration (wound healing)” value in experiment [2] was “significantly reduced”. Further, in experiment [3], the “inhibition of PDI signal compared to DMSO control, primary screen” value is recorded as “robust inhibitory effects”. The “TGFβ-induced SBE4-luc activity” value in experiment [4] is recorded as “significant reduction”. Moreover, in experiment [5], the “inhibition of PPI signal compared to DMSO control, primary screen” value is reported as “robust inhibitory effects”.

With `CC(C)=CCC/C(C)=C/Cc1c(O)c(CC=C(C)C)c2c(c1O)C(=O)C1=C[C@@H]3C[C@H]4C(C)(C)O[C@@](C/C=C(/C)C(=O)O)(C3=O)[C@@]14O2` [GNA, gambogenic acid], the IC50 in experiment [1] was about 8.9 µM; in experiment [3], 27.6 ± 4.8 µM; in experiment [5], 6.4 ± 1.6 µM; in experiment [6], about 9 µM. Besides, the “TGFβ-induced A549 cell migration (wound healing)” value in experiment [2] was “significantly reduced”. The “inhibition of PDI signal compared to DMSO control, primary screen” value in experiment [3] is “robust inhibitory effects”. In addition, in experiment [4], the “TGFβ-induced SBE4-luc activity” value is on record as “significant reduction”. Besides, the “inhibition of PPI signal compared to DMSO control, primary screen” value in experiment [5] is “robust inhibitory effects”.

In general, IC50 refers to the point on the concentration scale where inhibition reaches its midpoint.
